In patent US11214594B2, “Antimicrobial peptide having synergistic antibacterial effect with antibiotics on multidrug resistant bacteria, and use thereof” (priority 2016, dated 2022):
Values after ≈ are worked out from the molar mass of the structure shown. Where a SMILES comes first, the peptide text is derived from it.

What was measured:
P. aeruginosa = experiment: microbe, parasite or virus in culture; format: cell-based, Pseudomonas aeruginosa
In short: (§1)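 Peptides were serially diluted twofold in Mueller-Hinton medium and combined 1:1 with bacterial suspensions prepared at 2×10^6 CFU. Readout was the minimal inhibitory concentration, i.e. the lowest concentration with no growth.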

MDRST 8009 = format: cell-based, Salmonella typhimurium; conditions: agent alone
In short: as §1

MDREC 1238 = format: cell-based, Escherichia coli
In short: as §1

MDRAB 12035 [1] = experiment: microbe, parasite or virus in culture; format: cell-based, Acinetobacter baumannii
In short: as §1

A. baumannii = experiment: microbe, parasite or virus in culture; format: cell-based, Acinetobacter baumannii; conditions: for Antibacterial activity relative to PapMA-1: A. baumannii and antibiotic-resistant strains thereof
In short: as §1

gram-negative bacteria = experiment: MIC, summary statements for gram-negative bacteria; format: cell-based; conditions: gram-negative bacteria
Experimental: For the antibacterial activity, a minimal inhibitory concentration (MIC) of a peptide in which fungus bodies were not split in an MH medium with sufficient nutrients was measured.
Specifically, the strains described in the following [Table 2] were purchased and diluted with an MH medium such that the number of bacteria was 2×10^6 colony-forming units (CFUs), 100 μl of each of the diluted strains was aliquoted into a 96-well microtiter plate, and then 100 μl of a peptide solution diluted with the MH medium (solution diluted stepwise at 2: 1) was added to each well.

S. typhimurium = experiment: microbe, parasite or virus in culture; format: cell-based, Salmonella typhimurium
In short: as §1

MRSA 3114 = format: cell-based, Staphylococcus aureus; conditions: 3114
In short: as §1

MRSA 3126 = format: cell-based, Staphylococcus aureus; conditions: 3126
In short: as §1

MDRAB 12035 [2] = experiment: MIC of antibiotic during combined treatment with antimicrobial peptide; format: cell-based, Acinetobacter baumannii
In short: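 Broth microdilution in MH medium; strains were diluted to 2×10^6 CFU per ml before plating. Peptide was serially diluted stepwise at 2:1 starting from its MIC, and MH-diluted antibiotic was then added to determine MIC. The reversed arrangement was also tested.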

MDRPA 2002 = format: cell-based, Pseudomonas aeruginosa
In short: as §1

MDRPA 2003 = format: cell-based, Pseudomonas aeruginosa
In short: as §1

S. epidermidis = experiment: microbe, parasite or virus in culture; format: cell-based, Staphylococcus epidermidis
In short: as §1

[3] = peptide treatment concentration 1 μg/ml
[4] = peptide treatment concentration 2 μg/ml
[5] = peptide treatment concentration 4 μg/ml
[6] = peptide treatment concentration 6 μg/ml
[7] = peptide treatment concentration 8 μg/ml
[8] = peptide treatment concentration 16 μg/ml
[9] = peptide treatment concentration 32 μg/ml
[10] = peptide treatment concentration 64 μg/ml

CC[C@H](C)[C@H](NC(=O)[C@H](CCCCN)NC(=O)[C@H](Cc1c[nH]c2ccccc12)NC(=O)[C@@H](N)CCCNC(=N)N)C(=O)N[C@@H](Cc1ccccc1)C(=O)N[C@@H](CCCCN)C(=O)N[C@@H](CCCCN)C(=O)N[C@H](C(=O)N1CCC[C@H]1C(=O)N[C@@H](CCCCN)C(=O)N[C@@H](Cc1ccccc1)C(=O)N[C@@H](CC(C)C)C(=O)N[C@@H](Cc1c[nH]cn1)C(=O)N[C@@H](CO)C(=O)N[C@@H](C)C(=O)N[C@@H](CCCCN)C(=O)N[C@@H](CCCCN)C(=O)N[C@@H](Cc1c[nH]c2ccccc12)C(N)=O)[C@@H](C)CC [PapMA-2, RWK IFK KIP KFL HSA KKW-NH2] (H-RWKIFKKIPKFLHSAKKW-NH2; N-terminus assumed)
Minimal inhibitory concentration MIC (P. aeruginosa): 16 µg/mL (≈ 6.83 µM)
Minimal inhibitory concentration MIC (MDRST 8009): 64 µg/mL (≈ 27.3 µM)
Minimal inhibitory concentration MIC (MDREC 1238): 64 µg/mL (≈ 27.3 µM)
Minimal inhibitory concentration MIC (MDRAB 12035 [1]): 16 µg/mL (≈ 6.83 µM)
Peptide MIC, peptide alone (MDRAB 12035 [1]): 16 µg/mL
Minimal inhibitory concentration MIC (A. baumannii): 16 µg/mL (≈ 6.83 µM)
Peptide MIC, peptide alone (A. baumannii): 16 µg/mL
Antibacterial activity relative to PapMA-1 (A. baumannii): 4 times
Antibacterial activity (in words) (gram-negative bacteria): comparable to papiliocin or melittin
Minimal inhibitory concentration MIC (S. typhimurium): 32 µg/mL (≈ 13.7 µM)
Minimal inhibitory concentration MIC (MRSA 3114): >128 µg/mL
Minimal inhibitory concentration MIC (MRSA 3126): >128 µg/mL
Erythromycin MIC during combined treatment with peptide (MDRAB 12035 [2]; [3]): 32 µg/mL
Linezolid MIC during combined treatment with peptide (MDRAB 12035 [2]; [3]): >128 µg/mL
Vancomycin MIC during combined treatment with peptide (MDRAB 12035 [2]; [3]): >128 µg/mL
Erythromycin MIC during combined treatment with peptide (MDRAB 12035 [2]; [4]): 16 µg/mL
Linezolid MIC during combined treatment with peptide (MDRAB 12035 [2]; [4]): 64 µg/mL
Vancomycin MIC during combined treatment with peptide (MDRAB 12035 [2]; [4]): >128 µg/mL
Erythromycin MIC during combined treatment with peptide (MDRAB 12035 [2]; [5]): 4 µg/mL
Linezolid MIC during combined treatment with peptide (MDRAB 12035 [2]; [5]): 32 µg/mL
Vancomycin MIC during combined treatment with peptide (MDRAB 12035 [2]; [5]): 128 µg/mL
Erythromycin MIC during combined treatment with peptide (MDRAB 12035 [2]; [6]): 2 µg/mL
Linezolid MIC during combined treatment with peptide (MDRAB 12035 [2]; [6]): 32 µg/mL
Vancomycin MIC during combined treatment with peptide (MDRAB 12035 [2]; [6]): 32 µg/mL
Erythromycin MIC during combined treatment with peptide (MDRAB 12035 [2]; [7]): 0.25 µg/mL
Linezolid MIC during combined treatment with peptide (MDRAB 12035 [2]; [7]): 8 µg/mL
Vancomycin MIC during combined treatment with peptide (MDRAB 12035 [2]; [7]): 16 µg/mL
Erythromycin MIC during combined treatment with peptide (MDRAB 12035 [2]; [8]): 0 µg/mL
Linezolid MIC during combined treatment with peptide (MDRAB 12035 [2]; [8]): 0 µg/mL
Vancomycin MIC during combined treatment with peptide (MDRAB 12035 [2]; [8]): 0 µg/mL
Erythromycin MIC during combined treatment with peptide (MDRAB 12035 [2]; [9]): 0 µg/mL
Linezolid MIC during combined treatment with peptide (MDRAB 12035 [2]; [9]): 0 µg/mL
Vancomycin MIC during combined treatment with peptide (MDRAB 12035 [2]; [9]): 0 µg/mL
Erythromycin MIC during combined treatment with peptide (MDRAB 12035 [2]; [10]): 0 µg/mL
Linezolid MIC during combined treatment with peptide (MDRAB 12035 [2]; [10]): 0 µg/mL
Vancomycin MIC during combined treatment with peptide (MDRAB 12035 [2]; [10]): 0 µg/mL
Minimal inhibitory concentration MIC (MDRPA 2002): 16 µg/mL (≈ 6.83 µM)
Minimal inhibitory concentration MIC (MDRPA 2003): 16 µg/mL (≈ 6.83 µM)
Minimal inhibitory concentration MIC (S. epidermidis): >128 µg/mL

CC[C@H](C)[C@H](NC(=O)[C@H](CCCCN)NC(=O)[C@H](Cc1c[nH]c2ccccc12)NC(=O)[C@@H](N)CCCNC(=N)N)C(=O)N[C@@H](Cc1ccccc1)C(=O)N[C@@H](CCCCN)C(=O)N[C@@H](CCCCN)C(=O)N[C@H](C(=O)N1CCC[C@H]1C(=O)N[C@@H](CCCCN)C(=O)N[C@@H](Cc1ccccc1)C(=O)N[C@@H](CC(C)C)C(=O)N[C@@H](Cc1c[nH]cn1)C(=O)N[C@@H](CO)C(=O)N[C@@H](Cc1c[nH]c2ccccc12)C(=O)N[C@@H](CCCCN)C(=O)N[C@@H](CCCCN)C(=O)N[C@@H](Cc1ccccc1)C(N)=O)[C@@H](C)CC [PapMA-3, RWK IFK KIP KFL HSW KKF-NH2] (H-RWKIFKKIPKFLHSWKKF-NH2; N-terminus assumed)
Minimal inhibitory concentration MIC (P. aeruginosa): 16 µg/mL (≈ 6.62 µM)
Minimal inhibitory concentration MIC (MDRST 8009): 64 µg/mL (≈ 26.5 µM)
Minimal inhibitory concentration MIC (MDREC 1238): 64 µg/mL (≈ 26.5 µM)
Minimal inhibitory concentration MIC (MDRAB 12035 [1]): 16 µg/mL (≈ 6.62 µM)
Peptide MIC, peptide alone (MDRAB 12035 [1]): 16 µg/mL
Minimal inhibitory concentration MIC (A. baumannii): 16 µg/mL (≈ 6.62 µM)
Peptide MIC, peptide alone (A. baumannii): 16 µg/mL
Antibacterial activity relative to PapMA-1 (A. baumannii): 4 times
Antibacterial activity (in words) (gram-negative bacteria): comparable to papiliocin or melittin
Minimal inhibitory concentration MIC (S. typhimurium): 32 µg/mL (≈ 13.2 µM)
Minimal inhibitory concentration MIC (MRSA 3114): >128 µg/mL
Minimal inhibitory concentration MIC (MRSA 3126): >128 µg/mL
Erythromycin MIC during combined treatment with peptide (MDRAB 12035 [2]; [3]): 32 µg/mL
Linezolid MIC during combined treatment with peptide (MDRAB 12035 [2]; [3]): >128 µg/mL
Vancomycin MIC during combined treatment with peptide (MDRAB 12035 [2]; [3]): >128 µg/mL
Erythromycin MIC during combined treatment with peptide (MDRAB 12035 [2]; [4]): 16 µg/mL
Linezolid MIC during combined treatment with peptide (MDRAB 12035 [2]; [4]): 128 µg/mL
Vancomycin MIC during combined treatment with peptide (MDRAB 12035 [2]; [4]): >128 µg/mL
Erythromycin MIC during combined treatment with peptide (MDRAB 12035 [2]; [5]): 8 µg/mL
Linezolid MIC during combined treatment with peptide (MDRAB 12035 [2]; [5]): 32 µg/mL
Vancomycin MIC during combined treatment with peptide (MDRAB 12035 [2]; [5]): 128 µg/mL
Erythromycin MIC during combined treatment with peptide (MDRAB 12035 [2]; [6]): 4 µg/mL
Linezolid MIC during combined treatment with peptide (MDRAB 12035 [2]; [6]): 32 µg/mL
Vancomycin MIC during combined treatment with peptide (MDRAB 12035 [2]; [6]): 32 µg/mL
Erythromycin MIC during combined treatment with peptide (MDRAB 12035 [2]; [7]): 0.25 µg/mL
Linezolid MIC during combined treatment with peptide (MDRAB 12035 [2]; [7]): 16 µg/mL
Vancomycin MIC during combined treatment with peptide (MDRAB 12035 [2]; [7]): 16 µg/mL
Erythromycin MIC during combined treatment with peptide (MDRAB 12035 [2]; [8]): 0 µg/mL
Linezolid MIC during combined treatment with peptide (MDRAB 12035 [2]; [8]): 0 µg/mL
Vancomycin MIC during combined treatment with peptide (MDRAB 12035 [2]; [8]): 0 µg/mL
Erythromycin MIC during combined treatment with peptide (MDRAB 12035 [2]; [9]): 0 µg/mL
Linezolid MIC during combined treatment with peptide (MDRAB 12035 [2]; [9]): 0 µg/mL
Vancomycin MIC during combined treatment with peptide (MDRAB 12035 [2]; [9]): 0 µg/mL
Erythromycin MIC during combined treatment with peptide (MDRAB 12035 [2]; [10]): 0 µg/mL
Linezolid MIC during combined treatment with peptide (MDRAB 12035 [2]; [10]): 0 µg/mL
Vancomycin MIC during combined treatment with peptide (MDRAB 12035 [2]; [10]): 0 µg/mL
Minimal inhibitory concentration MIC (MDRPA 2002): 16 µg/mL (≈ 6.62 µM)
Minimal inhibitory concentration MIC (MDRPA 2003): 16 µg/mL (≈ 6.62 µM)
Minimal inhibitory concentration MIC (S. epidermidis): >128 µg/mL
